Experimental data reported in the NIST ThermoML archive (doi:10.1021/je030163d).
± gives the expanded uncertainty stated by the source.

Experiment: xn = mol fraction of the nth substance listed
Details: 101.3 kPa, Liquid; for viscosity: Capillary tube (Ostwald / Ubbelohde) method; for mass density: Pycnometric method

CC(=O)c1ccccc1 [acetophenone] + CN(C)C=O
viscosity (298.15 K, x2 = 0): 1.68 ± 0.013 mPa·s | viscosity (298.15 K, x2 = 0.1123): 1.584 ± 0.012 mPa·s | viscosity (298.15 K, x2 = 0.1641): 1.544 ± 0.012 mPa·s | viscosity (298.15 K, x2 = 0.308): 1.43 ± 0.01 mPa·s | viscosity (298.15 K, x2 = 0.4328): 1.328 ± 0.009 mPa·s | viscosity (298.15 K, x2 = 0.5286): 1.246 ± 0.009 mPa·s | viscosity (298.15 K, x2 = 0.6256): 1.156 ± 0.008 mPa·s | viscosity (298.15 K, x2 = 0.7165): 1.072 ± 0.008 mPa·s | viscosity (298.15 K, x2 = 0.7943): 0.999 ± 0.007 mPa·s | viscosity (298.15 K, x2 = 0.9378): 0.863 ± 0.006 mPa·s | mass density (298.15 K, x2 = 0): 1024.1 ± 0.6 kg/m3 | mass density (298.15 K, x2 = 0.1123): 1018 ± 0.5 kg/m3 | mass density (298.15 K, x2 = 0.1641): 1015.6 ± 0.5 kg/m3 | mass density (298.15 K, x2 = 0.308): 1008.8 ± 0.5 kg/m3 | mass density (298.15 K, x2 = 0.4328): 1001 ± 0.5 kg/m3 | mass density (298.15 K, x2 = 0.5286): 994.2 ± 0.4 kg/m3 | mass density (298.15 K, x2 = 0.6256): 985.8 ± 0.4 kg/m3 | mass density (298.15 K, x2 = 0.7165): 977.2 ± 0.4 kg/m3 | mass density (298.15 K, x2 = 0.7943): 969 ± 0.4 kg/m3 | mass density (298.15 K, x2 = 0.9378): 952.5 ± 0.3 kg/m3 | viscosity (303.15 K, x2 = 0): 1.54 ± 0.012 mPa·s | viscosity (303.15 K, x2 = 0.1123): 1.453 ± 0.011 mPa·s | viscosity (303.15 K, x2 = 0.1641): 1.418 ± 0.011 mPa·s | viscosity (303.15 K, x2 = 0.308): 1.314 ± 0.01 mPa·s | viscosity (303.15 K, x2 = 0.4328): 1.221 ± 0.009 mPa·s | viscosity (303.15 K, x2 = 0.5286): 1.148 ± 0.008 mPa·s | viscosity (303.15 K, x2 = 0.6256): 1.069 ± 0.008 mPa·s | viscosity (303.15 K, x2 = 0.7165): 0.995 ± 0.007 mPa·s | viscosity (303.15 K, x2 = 0.7943): 0.93 ± 0.007 mPa·s | viscosity (303.15 K, x2 = 0.9378): 0.809 ± 0.006 mPa·s | mass density (303.15 K, x2 = 0): 1019.9 ± 0.6 kg/m3 | mass density (303.15 K, x2 = 0.1123): 1013.9 ± 0.6 kg/m3 | mass density (303.15 K, x2 = 0.1641): 1011.4 ± 0.5 kg/m3 | mass density (303.15 K, x2 = 0.308): 1004.6 ± 0.5 kg/m3 | mass density (303.15 K, x2 = 0.4328): 996.8 ± 0.5 kg/m3 | mass density (303.15 K, x2 = 0.5286): 989.9 ± 0.4 kg/m3 | mass density (303.15 K, x2 = 0.6256): 981.4 ± 0.4 kg/m3 | mass density (303.15 K, x2 = 0.7165): 972.8 ± 0.4 kg/m3 | mass density (303.15 K, x2 = 0.7943): 964.5 ± 0.4 kg/m3 | mass density (303.15 K, x2 = 0.9378): 947.9 ± 0.4 kg/m3 | viscosity (308.15 K, x2 = 0): 1.41 ± 0.011 mPa·s | viscosity (308.15 K, x2 = 0.1123): 1.33 ± 0.01 mPa·s | viscosity (308.15 K, x2 = 0.1641): 1.299 ± 0.01 mPa·s | viscosity (308.15 K, x2 = 0.308): 1.205 ± 0.009 mPa·s | viscosity (308.15 K, x2 = 0.4328): 1.122 ± 0.008 mPa·s | viscosity (308.15 K, x2 = 0.5286): 1.056 ± 0.008 mPa·s | viscosity (308.15 K, x2 = 0.6256): 0.984 ± 0.007 mPa·s | viscosity (308.15 K, x2 = 0.7165): 0.918 ± 0.007 mPa·s | viscosity (308.15 K, x2 = 0.7943): 0.861 ± 0.006 mPa·s | viscosity (308.15 K, x2 = 0.9378): 0.755 ± 0.006 mPa·s | mass density (308.15 K, x2 = 0): 1015.7 ± 0.6 kg/m3 | mass density (308.15 K, x2 = 0.1123): 1009.7 ± 0.6 kg/m3 | mass density (308.15 K, x2 = 0.1641): 1007.2 ± 0.5 kg/m3 | mass density (308.15 K, x2 = 0.308): 1000.4 ± 0.5 kg/m3 | mass density (308.15 K, x2 = 0.4328): 992.5 ± 0.5 kg/m3 | mass density (308.15 K, x2 = 0.5286): 985.6 ± 0.5 kg/m3 | mass density (308.15 K, x2 = 0.6256): 977.1 ± 0.4 kg/m3 | mass density (308.15 K, x2 = 0.7165): 968.4 ± 0.4 kg/m3 | mass density (308.15 K, x2 = 0.7943): 960 ± 0.4 kg/m3 | mass density (308.15 K, x2 = 0.9378): 943.3 ± 0.4 kg/m3 | viscosity (313.15 K, x2 = 0): 1.31 ± 0.01 mPa·s | viscosity (313.15 K, x2 = 0.1123): 1.238 ± 0.009 mPa·s | viscosity (313.15 K, x2 = 0.1641): 1.206 ± 0.009 mPa·s | viscosity (313.15 K, x2 = 0.308): 1.123 ± 0.008 mPa·s | viscosity (313.15 K, x2 = 0.4328): 1.047 ± 0.008 mPa·s | viscosity (313.15 K, x2 = 0.5286): 0.987 ± 0.007 mPa·s | viscosity (313.15 K, x2 = 0.6256): 0.922 ± 0.007 mPa·s | viscosity (313.15 K, x2 = 0.7165): 0.862 ± 0.006 mPa·s | viscosity (313.15 K, x2 = 0.7943): 0.81 ± 0.006 mPa·s | viscosity (313.15 K, x2 = 0.9378): 0.714 ± 0.006 mPa·s | mass density (313.15 K, x2 = 0): 1011.2 ± 0.6 kg/m3 | mass density (313.15 K, x2 = 0.1123): 1005.2 ± 0.6 kg/m3 | mass density (313.15 K, x2 = 0.1641): 1002.7 ± 0.5 kg/m3 | mass density (313.15 K, x2 = 0.308): 995.9 ± 0.5 kg/m3 | mass density (313.15 K, x2 = 0.4328): 988 ± 0.5 kg/m3 | mass density (313.15 K, x2 = 0.5286): 981.1 ± 0.5 kg/m3 | mass density (313.15 K, x2 = 0.6256): 972.5 ± 0.4 kg/m3 | mass density (313.15 K, x2 = 0.7165): 963.8 ± 0.4 kg/m3 | mass density (313.15 K, x2 = 0.7943): 955.3 ± 0.4 kg/m3 | mass density (313.15 K, x2 = 0.9378): 938.5 ± 0.4 kg/m3
